# Tested on: nitric oxide (NO) production in LPS-treated RAW264.7 cells
# Assay: Anti-inflammation activity: NO production by Griess reagent
# Assay type: cell-based, mouse
# Conditions: LPS-induced RAW264.7, 48 hours, FIG. 2
# Procedure: RAW264.7 cells which have been induced to have an inflammation response by LPS in the same manner as above were added to a 96-well plate. […] Then, by using the Griess reagent, the production amount of NO was measured.
smiles,measurement,value
COc1ccc2c(c1)c(CC(=O)O)c(C)n2C(=O)c1ccc(Cl)cc1 [indomethacin],NO production (result in words),decreased

# — patent US20210330575A1 (DONG KOOK PHARM. CO., LTD, priority 2018, published 2021)
